The source of these data is paper PMC9737137, “The Mitochondrial Protein MitoNEET as a Probe for the Allostery of Glutamate Dehydrogenase” (Molecules, 2022).

pIC50: −log10 of the molar value.

The target in assay [1] is T1, glutamate dehydrogenase (GDH) (Bos taurus, UniProt P00366).
T1 construct: gene GLUD1
Nature of the assay: GDH kinetics, NAD(P)H formation at […] nm; fraction of activity. It counts as biochemical.

In assay [2] the target is T2, mitoNEET (Homo sapiens, UniProt Q9NZ45).
T2 construct: gene CISD1
T2 sequence (Q9NZ45 2-108): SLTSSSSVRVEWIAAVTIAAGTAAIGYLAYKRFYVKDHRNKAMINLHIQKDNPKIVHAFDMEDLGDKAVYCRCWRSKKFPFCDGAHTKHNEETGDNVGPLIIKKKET
Nature of the assay: radioligand competition assay (SPA nickel beads). The class given is binding.

Assay [3] concerns the target T1, glutamate dehydrogenase (GDH). Nature of the assay: GDH kinetics, NAD(P)H formation at […] nm; fraction of activity (Figure 1C). It counts as biochemical.
For assay [4] the target is unchanged. Nature of the assay: GDH kinetics, NAD(P)H formation at […] nm; percent activation with NADP. The class given is biochemical.
For assay [5] the target is unchanged. Nature of the assay: GDH kinetics, NAD(P)H formation at […] nm; percent activation (Figure 4B). It counts as biochemical.
For assay [6] the target is unchanged. Put plainly: GDH kinetics, NAD(P)H formation at […] nm; fraction of activity with NAD added first. It counts as biochemical.

T1 sequence (P00366 58-558, one chain of several): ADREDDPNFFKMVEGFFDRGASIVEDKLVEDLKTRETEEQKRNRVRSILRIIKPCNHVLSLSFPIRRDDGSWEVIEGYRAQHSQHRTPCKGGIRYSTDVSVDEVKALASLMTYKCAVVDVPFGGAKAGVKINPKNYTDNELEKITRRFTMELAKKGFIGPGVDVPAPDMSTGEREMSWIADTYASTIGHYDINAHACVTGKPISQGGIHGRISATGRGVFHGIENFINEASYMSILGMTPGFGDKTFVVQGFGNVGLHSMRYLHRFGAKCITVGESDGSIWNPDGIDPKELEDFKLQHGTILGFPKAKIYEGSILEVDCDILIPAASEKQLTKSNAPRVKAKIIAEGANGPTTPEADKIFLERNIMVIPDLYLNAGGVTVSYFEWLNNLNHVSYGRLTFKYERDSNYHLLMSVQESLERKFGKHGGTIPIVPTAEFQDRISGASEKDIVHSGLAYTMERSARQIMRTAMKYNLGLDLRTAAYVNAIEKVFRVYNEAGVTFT

Regarding `CCCCCCCCCCCCCCCC(=O)SCCNC(=O)CCNC(=O)[C@H](O)C(C)(C)COP(=O)(O)OP(=O)(O)OC[C@H]1O[C@@H](n2cnc3c(N)ncnc32)[C@H](O)[C@@H]1OP(=O)(O)O` [palmitoyl-CoA], the “GDH kinetics, NAD(P)H formation at 340 nm; fraction of activity” value in assay [1] is reported as 0.44 ± 0.04 fraction of activity. Moreover, the pIC50 in assay [2] was 6.52.
On to `Nc1nc2c(ncn2[C@@H]2O[C@H](COP(=O)(O)OP(=O)(O)OP(=O)(O)O)[C@@H](O)[C@H]2O)c(=O)[nH]1` [GTP], for which the “GDH kinetics, NAD(P)H formation at 340 nm; fraction of activity (Figure 1C)” value in assay [3] was “under only one assay condition the rescue of GDH activity from GTP inhibition by mitoNEET could be observed”.
For the compound `Nc1ncnc2c1ncn2[C@@H]1O[C@H](COP(=O)(O)OP(=O)(O)O)[C@@H](O)[C@H]1O` [ADP], the “% activation” value in assay [4] amounted to 67 % activation.
In the case of `CC(C)C[C@H](N)C(=O)O` [leucine], in assay [5], the “GDH kinetics, NAD(P)H formation at 340 nm; percent activation (Figure 4B)” value was “addition of mitoNEET after the addition of leucine gave no impact in percent activation over the addition of leucine alone”.
Take `O=C(O[C@@H]1Cc2c(O)cc(O)cc2O[C@@H]1c1cc(O)c(O)c(O)c1)c1cc(O)c(O)c(O)c1` [EGCG]: in assay [6], the “GDH kinetics, NAD(P)H formation at 340 nm; fraction of activity with NAD added f” value was 0.35 ± 0.02 fraction of activity.

In general, pIC50 refers to −log10 of the IC50, conventionally taken in molar units.
